Key:
[1] = test system: OVA-induced inflammatory gene expression in lung tissues; assay: Lung mRNA expression of inflammatory genes (RT-PCR); type: in vivo, mouse; conditions: 30 mg/kg pretreatment; OVA-challenged mice
Description: (§1) Female BALB/c mice, 6 to 8 weeks old (Interfauna, East Yorkshire, UK), were sensitized and challenged with OVA as described (24). Artesunate (3, 10, and 30 mg/kg; Sigma, St. Louis, Mo.) or vehicle (6% dimethyl sulfoxide [DMSO]) in 0.1 ml saline was given by intraperitoneal injections 2 hours before each OVA aerosol challenge. Saline aerosol was used as a negative control. Animal experiments were performed according to the Institutional guidelines for Animal Care and Use Committee of the National University of Singapore.
(§2) Lung and cell culture protein lysates ([…] per lane) were separated by 10% SDS-PAGE and immunoblots were developed as described (24). Immunoblots were probed with anti-Akt, anti-phospho-Akt (Ser473), anti-tuberin, anti-phosphotuberin (Ser1462), anti-p70S6K, anti-phospho-p70S6K (Ser389), anti-4E-BP1, anti phospho-4E-BP1 (Ser65), and anti-β-actin antibodies (Cell Signaling Technology, Beverly, Mass.). Proteins were separated by 10% SDSPAGE, probed with anti-Akt, anti-phospho-Akt (Ser473), anti-tuberin, antiphospho-tuberin (Ser1462), anti-p 70S6K, anti-phospho-p70S6K (Ser389), anti-4EBP1, and anti-phospho-4E-BP1 (Ser65), and developed by enhanced chemiluminescence reagent. β-actin was used as an internal control. The experiments were repeated for three times. Primers for inflammatory genes are shown in Table 1 and mRNA expression was analyzed as described (24). Nuclear proteins were analyzed for NF-κB DNA-binding activity using TransAM NF-κB transcription factor assay kit (Active Motif, Carlsbad, Calif.). Total mRNA was extracted using TriZol reagent and the PCR products were separated in a 2% agarose gel visualized under UV light. β-actin was used as an internal control. The experiments were repeated for three times

[2] = test system: OVA-induced serum Ig production in BALB/c mice; assay: Serum Ig levels by ELISA in OVA-induced mouse asthma model; type: in vivo
Description: as §1, with “Singapore. Mice were anesthetized 24 hours after the last aerosol challenge and bronchoalveolar lavage (BAL) was performed as described (24). BAL fluid total and differential cell counts, and cytokine and chemokine levels were determined as described (24). Blood was collected by cardiac puncture, and serum levels of total IgE and OVA-specific IgE, IgG1, and IgG2a levels were determined as described (24).” for “Singapore.”

[3] = test system: OVA-induced inflammatory cell recruitment in BALB/c mice; assay: BAL fluid total and differential cell counts in OVA-induced mouse asthma model; type: in vivo
Description: as §1, with “Singapore. Mice were anesthetized 24 hours after the last aerosol challenge and bronchoalveolar lavage (BAL) was performed as described (24). BAL fluid total and differential cell counts, and cytokine and chemokine levels were determined as described (24). Blood was collected by cardiac puncture, and serum levels of total IgE and OVA-specific IgE, IgG1, and IgG2a levels were determined as described (24).” for “Singapore.”

p65 NF-κB [4] = assay: p65 NF-κB DNA-binding activity in EGF-stimulated normal human bronchial epithelial cells; type: cell-based; conditions: 10 μM artesunate; EGF 30 min
Description: (§3) To determine the effects of artesunate on OVA-specific immune responses in lymphocytes, thoracic lymph node cells were prepared as described (24). Cells were exposed to […] OVA for 72 hours. Concanavalin A (Con A, 10 μg/ml) was used as a positive control. Supernatants from parallel triplicate cultures were analyzed for cytokine levels by ELISA. Normal human bronchial epithelial cells were cultured in optimized bronchial epithelial bulletkit medium with supplements (Lonza, Basel, Switzerland). Cells were pretreated with 10 μM artesunate or vehicle (0.01% DMSO) 4 hours before stimulation with […] epidermal growth factor (EGF). Total and nuclear proteins, and mRNA were extracted from cells at specified time intervals.
(§4) Lung and cell culture protein lysates ([…] per lane) were separated by 10% SDS-PAGE and immunoblots were developed as described (24). Immunoblots were probed with anti-Akt, anti-phospho-Akt (Ser473), anti-tuberin, anti-phosphotuberin (Ser1462), anti-p70S6K, anti-phospho-p70S6K (Ser389), anti-4E-BP1, anti phospho-4E-BP1 (Ser65), and anti-β-actin antibodies (Cell Signaling Technology, Beverly, Mass.). […] Primers for inflammatory genes are shown in Table 1 and mRNA expression was analyzed as described (24). Nuclear proteins were analyzed for NF-κB DNA-binding activity using TransAM NF-κB transcription factor assay kit (Active Motif, Carlsbad, Calif.). […]

[5] = test system: PI3K/Akt signaling pathway; assay: TNF-α-induced signalling in normal human bronchial epithelial cells; type: cell-based
[6] = test system: thoracic lymph node cells; assay: OVA-specific responses in thoracic lymph node cultures from treated mice; type: cell-based, mouse
Description: as §3

p65 NF-κB [7] = assay: Nuclear p65 NF-κB DNA-binding activity in lung tissues (TransAM ELISA kit); type: in vivo, mouse; conditions: 30 mg/kg; to basal level
Description: as §1, §4

[8] = test system: peripheral blood leukocytes; assay: Flow cytometric analysis of peripheral blood leukocytes; type: in vivo, mouse; conditions: artesunate-treated vs saline-challenged, OVA-challenged and vehicle control mice; data not shown
Description: BAL fluid was collected 24 hours after the last OVA or saline aerosol challenge, and total and differential cell counts were performed. […] We have conducted flow cytometric analysis of peripheral blood leukocytes obtained from saline challenged, OVA-challenged, vehicle control, and artesunate-treated mice.

[9] = test system: PI3K/Akt signaling pathway; assay: Immunoblotting of PI3K/Akt phosphorylation cascade in lung tissues; type: in vivo, mouse; conditions: 30 mg/kg; OVA-challenged mice; to the basal levels
Description: as §1, §2

[10] = test system: normal human bronchial epithelial cells; assay: Cytokine mRNA expression in EGF-stimulated normal human bronchial epithelial cells; type: cell-based; conditions: 10 μM artesunate; EGF 12 hours
Description: as §3, §2

[11] = test system: phosphoinositide 3-kinase (PI3K)/Akt signaling pathway; conditions: cited from earlier work
[12] = test system: OVA-induced lung tissue eosinophilia and mucus hypersecretion in BALB/c mice; assay: Histologic analysis of lung tissue (H&E, PAS) in OVA-induced mouse asthma model; type: in vivo; conditions: 30 mg/kg, 24 h after last OVA challenge
Description: Female BALB/c mice, 6 to 8 weeks old (Interfauna, East Yorkshire, UK), were sensitized and challenged with OVA as described (24). Artesunate (3, 10, and 30 mg/kg; Sigma, St. Louis, Mo.) or vehicle (6% dimethyl sulfoxide [DMSO]) in 0.1 ml saline was given by intraperitoneal injections 2 hours before each OVA aerosol challenge. Saline aerosol was used as a negative control. Animal experiments were performed according to the Institutional guidelines for Animal Care and Use Committee of the National University of Singapore. Lungs were fixed in 10% neutral formalin, paraffinized, cut into 5-μm sections, and stained with hematoxylin and eosin (H&E) for examining cell infiltration and with periodic acid-Schiff stain (PAS) for measuring mucus production. Quantitative analysis was performed blinded as described (24). Quantitative analyses of inflammatory cell infiltration and mucus production in lung sections were performed as previously described (24). […] To determine the extent of mucus production, goblet cell hyperplasia in the airway epithelium was quantified blind using a 5-point grading system: 0, no goblet cells; 1, <25%; 2, 25-50%; 3, 50-75%; 4, >75%.

[13] = test system: OVA-induced AHR in BALB/c mice; assay: Airway hyperresponsiveness (AHR) to methacholine in mechanically ventilated mice; type: in vivo, mouse; conditions: 30 mg/kg; OVA-challenged mice; methacholine 0.5-8.0 mg/ml
Description: Female BALB/c mice, 6 to 8 weeks old (Interfauna, East Yorkshire, UK), were sensitized and challenged with OVA as described (24). Artesunate (3, 10, and 30 mg/kg; Sigma, St. Louis, Mo.) or vehicle (6% dimethyl sulfoxide [DMSO]) in 0.1 ml saline was given by intraperitoneal injections 2 hours before each OVA aerosol challenge. Saline aerosol was used as a negative control. […] Mice were anesthetized and tracheotomy was performed as described (24). The trachea was intubated with a cannula that was connected to the pneumotach, ventilator and nebulizer. Airway resistance (RI) and dynamic compliance (Cdyn) in response to increasing concentrations of nebulized mechacholine (0.5-8.0 mg/ml) were recorded using a whole-body plethysmograph chamber (Buxco, Sharon, Conn.) as described (24). Results are expressed as a percentage of the respective basal values in response to phosphate-buffered saline (PBS).

[14] = test system: OVA-induced BAL fluid cytokine and chemokine levels in BALB/c mice; assay: BAL fluid cytokine and chemokine levels by ELISA in OVA-induced mouse asthma model; type: in vivo
Description: as §1, with “Singapore. Mice were anesthetized 24 hours after the last aerosol challenge and bronchoalveolar lavage (BAL) was performed as described (24). BAL fluid total and differential cell counts, and cytokine and chemokine levels were determined as described (24). Blood was collected by cardiac puncture, and serum levels of total IgE and OVA-specific IgE, IgG1, and IgG2a levels were determined as described (24).” for “Singapore.”

macrophages = conditions: cited from earlier work
[15] = test system: human rheumatoid arthritis fibroblast-like synoviocytes; conditions: TNF-α-stimulated; cited from earlier work
[16] = test system: PI3K/Akt signaling pathway; assay: Immunoblotting of EGF-stimulated normal human bronchial epithelial cells; type: cell-based; conditions: 10 μM artesunate, pretreated 4 h; EGF 5, 15 and 30 min
Description: as §3, §2

[17] = 3, 10 and 30 mg/kg i.p. 2 h before each OVA challenge, 24 h after last challenge, dose-dependent, vs DMSO vehicle control
[18] = mice pretreated with 30 mg/kg, cells cultured 72 h with OVA, vs DMSO
[19] = 3, 10, 30 mg/kg, dose-dependent, to a lesser extent than IL-13 and eotaxin, vs DMSO control
[20] = 3, 10, 30 mg/kg, dose-dependent, vs DMSO control

C[C@H]1[C@H](OC(=O)CCC(=O)O)O[C@@H]2O[C@@]3(C)CC[C@H]4[C@H](C)CC[C@@H]1[C@@]24OO3 [Artesunate, artesunate]
lung AMCase mRNA level [1]: strong suppression
lung E-selectin mRNA level [1]: strong suppression
lung ICAM-1 mRNA level [1]: strong suppression
lung IL-17 mRNA level [1]: strong suppression
lung IL-33 mRNA level [1]: strong suppression
lung Muc5ac mRNA level [1]: strong suppression
lung TSLP mRNA level [1]: strong suppression
lung VCAM-1 mRNA level [1]: strong suppression
lung YKL-40 mRNA level [1]: strong suppression
lung Ym-2 mRNA level [1]: strong suppression
lung iNOS mRNA level [1]: strong suppression
serum total IgE level ([2]; 24 h after last OVA aerosol challenge): no effect
serum OVA-specific IgG2a level ([2]; OVA-challenged mice): no effects
serum OVA-specific IgE level ([2]; even at the lowest dose (3 mg/kg)): strongly suppressed
serum OVA-specific IgG1 level ([2]; suppressed to a lesser extent than OVA-specific IgE): significant effects at higher dose
eosinophil count in BAL fluid [3, 17]: drastically decreased
total cell count in BAL fluid [3, 17]: drastically decreased
lymphocyte count in BAL fluid ([3]; OVA-challenged mice): significant drop
EGF-induced NF-κB transactivation (DNA binding activity) (p65 NF-κB [4]): markedly inhibited
TNF-α-induced NF-κB DNA binding activity [5]: inhibited
TNF-α-induced phosphorylation of Akt [5]: inhibited
TNF-α-induced phosphorylation of p70 S6 kinase [5]: inhibited
TNF-α-induced phosphorylation of phosphoinositide 3-kinase (PI3K) [5]: inhibited
in vitro OVA-specific IL-4 production [6, 18]: significantly (P<0.05) lowered
in vitro OVA-specific IL-5 production [6, 18]: significantly (P<0.05) lowered
in vitro OVA-specific IL-13 production [6, 18]: significantly (P<0.05) lowered
in vitro OVA-specific IFN-γ production ([6]; mice treated with 30 mg/kg, cells cultured 72 h with OVA): elevated
Con A-induced production of IL-4, IL-5, IL-13 and IFN-γ ([6]; parallel cultures, Con A 10 μg/ml, data not shown): not affected
OVA-induced NF-κB transactivation (p65 DNA-binding) in lung tissues (p65 NF-κB [7]): significantly suppressed
percentages of CD3+, CD4+, CD8+ T cells, B cells, NK cells, neutrophils and monocytes in peripheral blood [8]: Similar
phosphorylation of 4E-BP1 in lung tissues [9]: markedly reduced
phosphorylation of Akt in lung tissues [9]: markedly reduced
phosphorylation of p70S6K in lung tissues [9]: markedly reduced
phosphorylation of tuberin in lung tissues [9]: markedly reduced
EGF-induced up-regulation of IL-6 mRNA expression [10]: noticeably blocked
EGF-induced up-regulation of IL-8 mRNA expression [10]: noticeably blocked
EGF-induced up-regulation of MCP-1 mRNA expression [10]: noticeably blocked
EGF-induced up-regulation of RANTES mRNA expression [10]: noticeably blocked
activity against the PI3K/Akt signaling pathway [11]: strong inhibitory activity
OVA-induced mucus hypersecretion (PAS) [12]: significantly halted
eosinophil-rich leukocyte infiltration in lung tissue (H&E) ([12]; vs DMSO control): markedly diminished
dynamic compliance (Cdyn) in response to methacholine aerosol [13]: restored
lung/airway resistance (RI) in response to methacholine aerosol [13]: dramatically reduced
IL-4 level in BAL fluid [14, 19]: reduced
IL-5 level in BAL fluid [14, 19]: reduced
IL-13 level in BAL fluid [14, 20]: drastically reduced
eotaxin level in BAL fluid [14, 20]: drastically reduced
IFN-γ level in BAL fluid ([14]; 10 and 30 mg/kg): up-regulated
lipopolysaccharide-induced production of IL-6 (macrophages): inhibits
lipopolysaccharide-induced production of TNF-α (macrophages): inhibits
lipopolysaccharide-induced production of nitric oxide (NO) (macrophages): inhibits
expression of TLR9 (macrophages; lipopolysaccharide-induced): inhibits
expression of toll-like receptor 4 (TLR4) (macrophages; lipopolysaccharide-induced): inhibits
production of IL-1β [15]: block
production of IL-6 [15]: block
production of IL-8 [15]: block
EGF-induced phosphorylation of 4E-BP1 [16]: markedly inhibited
EGF-induced phosphorylation of Akt [16]: markedly inhibited
EGF-induced phosphorylation of p70S6K [16]: markedly inhibited
EGF-induced phosphorylation of tuberin [16]: markedly inhibited
